Data from US8846947B2, “Benzimidazoles and related analogs as sirtuin modulators” (GlaxoSmithKline LLC, priority 2008, dated 2014).
Structures can show the parent of a compound that is named as a salt.

Target: T1, SIRT1 (Homo sapiens, UniProt Q96EB6)
T1 sequence (Q96EB6 1-747): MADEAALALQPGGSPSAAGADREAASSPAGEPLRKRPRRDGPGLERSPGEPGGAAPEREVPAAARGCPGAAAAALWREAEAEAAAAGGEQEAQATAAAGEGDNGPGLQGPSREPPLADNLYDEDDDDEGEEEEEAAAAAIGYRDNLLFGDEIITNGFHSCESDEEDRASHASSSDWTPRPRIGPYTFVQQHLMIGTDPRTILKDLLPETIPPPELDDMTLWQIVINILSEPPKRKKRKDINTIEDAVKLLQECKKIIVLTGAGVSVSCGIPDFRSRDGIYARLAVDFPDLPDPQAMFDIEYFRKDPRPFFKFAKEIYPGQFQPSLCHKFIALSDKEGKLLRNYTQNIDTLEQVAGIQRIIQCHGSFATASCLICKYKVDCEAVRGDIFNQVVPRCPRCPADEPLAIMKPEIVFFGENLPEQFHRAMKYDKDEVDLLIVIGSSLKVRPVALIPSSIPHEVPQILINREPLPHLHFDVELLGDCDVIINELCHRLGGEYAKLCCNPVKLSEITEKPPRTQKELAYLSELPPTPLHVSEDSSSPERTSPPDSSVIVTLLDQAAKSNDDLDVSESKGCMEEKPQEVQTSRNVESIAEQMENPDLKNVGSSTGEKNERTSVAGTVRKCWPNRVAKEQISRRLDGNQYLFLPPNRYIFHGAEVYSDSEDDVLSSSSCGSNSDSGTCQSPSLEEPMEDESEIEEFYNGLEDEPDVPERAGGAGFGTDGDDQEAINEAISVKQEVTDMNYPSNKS
Test: Mass spectrometry based SIRT1 deacetylase activation assay (acetylated p53-derived peptide substrate)
Type: biochemical
From the text: A mass spectrometry based assay was used to identify modulators of SIRT1 activity. The mass spectrometry based assay utilizes a peptide having 20 amino acid residues as follows: Ac-EE-K(biotin)-GQSTSSHSK(Ac)NleSTEG-K(5TMR)-EE-NH2 (SEQ ID NO: 1) wherein K(Ac) is an acetylated lysine residue and Nle is a norleucine. The peptide is labeled with the fluorophore 5TMR (excitation 540 nm/emission 580 nm) at the C-terminus. The sequence of the peptide substrate is based on p53 with several modifications. In addition, the methionine residue naturally present in the sequence was replaced with the norleucine because the methionine may be susceptible to oxidation during synthesis and purification.
The mass spectrometry assay is conducted as follows: 0.5 μM peptide substrate and 120 μM βNAD^+ is incubated with 10 nM SIRT1 for 25 minutes at 25° C. in a reaction buffer (50 mM Tris-acetate pH 8, 137 mM NaCl, 2.7 mM KCl, 1 mM MgCl2, 5 mM DTT, 0.05% BSA). Test compounds may be added to the reaction as described above. […] After the 25 minute incubation with SIRT1, 10 μL of 10% formic acid is added to stop the reaction. Reactions are sealed and frozen for later mass spec analysis. Determination of the mass of the substrate peptide allows for precise determination of the degree of acetylation (i.e. starting material) as compared to deacetylated peptide (product).
A control for inhibition of sirtuin activity is conducted by adding 1 μL of 500 mM nicotinamide as a negative control at the start of the reaction (e.g., permits determination of maximum sirtuin inhibition). A control for activation of sirtuin activity is conducted using 10 nM of sirtuin protein, with 1 μL of DMSO in place of compound, to determine the amount of deacetylation of the substrate at a given timepoint within the linear range of the assay. This timepoint is the same as that used for test compounds and, within the linear range, the endpoint represents a change in velocity.
For the above assay, SIRT1 protein was expressed and purified as follows. […] The protein was expressed by induction with 1 mM IPTG as an N-terminal His-tag fusion protein at 18° C. overnight and harvested at 30,000×g. Cells were lysed with lysozyme in lysis buffer (50 mM Tris-HCl, 2 mM Tris[2-carboxyethyl]phosphine (TCEP), 10 μM ZnCl2, 200 mM NaCl) and further treated with sonication for 10 min for complete lysis. The protein was purified over a Ni-NTA column (Amersham) and fractions containing pure protein were pooled, concentrated and run over a sizing column (Sephadex S200 26/60 global). The peak containing soluble protein was collected and run on an Ion-exchange column (MonoQ). Gradient elution (200 mM-500 mM NaCl) yielded pure protein. This protein was concentrated and dialyzed against dialysis buffer (20 mM Tris-HCl, 2 mM TCEP) overnight. The protein was aliquoted and frozen at −80° C. until further use.
Sirtuin modulating compounds that activated SIRT1 were identified using the assay described above and are shown below in Table 1. The EC1.5 values for the activating compounds are represented by A (EC1.5<1.0 uM), B (EC1.5 1-25 uM), C (EC1.5 >25 uM). The percent maximum fold activation is represented by A (Fold activation >200%) or B (Fold Activation <200%).

Structure (SMILES) | EC1.5 | Fold Act. (percent maximum fold activation)
O=C(Nc1nccs1)c1cccc2[nH]c(-c3cc(F)cc(Cl)c3)nc12 [Compound 220] | B (EC1.5 1-25 uM) | A (Fold activation >200%)
O=C(Nc1nccs1)c1cccc2[nH]c(-c3ccc4c(c3)OC(F)(F)O4)nc12 [Compound 221] | C (EC1.5 >25 uM) | B (Fold Activation <200%)
O=C(Nc1nccs1)c1cccc2[nH]c(-c3cccc(-c4ccccc4)c3)nc12 [Compound 222] | C (EC1.5 >25 uM) | B (Fold Activation <200%)
O=C(Nc1nccs1)c1cccc2[nH]c(-c3ccc(-c4ccccc4)cc3)nc12 [Compound 223] | C (EC1.5 >25 uM) | B (Fold Activation <200%)
O=C(Nc1nccs1)c1cccc2[nH]c(-c3cccc(Oc4ccccc4)c3)nc12 [Compound 224] | B (EC1.5 1-25 uM) | A (Fold activation >200%)
O=C(Nc1nccs1)c1cccc2[nH]c(-c3cccc(N4CCCCC4)c3)nc12 [Compound 225] | B (EC1.5 1-25 uM) | A (Fold activation >200%)
O=C(Nc1nccs1)c1cccc2[nH]c(-c3cccc(N4CCOCC4)c3)nc12 [Compound 226] | A (EC1.5<1.0 uM) | A (Fold activation >200%)
O=C(Nc1nccs1)c1cccc2[nH]c(-c3cccnc3)nc12 [Compound 227] | B (EC1.5 1-25 uM) | A (Fold activation >200%)
O=C(Nc1nccs1)c1cccc2[nH]c(-c3ccc4ccccc4c3)nc12 [Compound 228] | B (EC1.5 1-25 uM) | A (Fold activation >200%)
O=C(Nc1nccs1)c1cccc2[nH]c(-c3ccoc3)nc12 [Compound 229] | B (EC1.5 1-25 uM) | A (Fold activation >200%)
Cc1cc(-c2nc3c(C(=O)Nc4nccs4)cccc3[nH]2)no1 [Compound 230] | A (EC1.5<1.0 uM) | B (Fold Activation <200%)
O=C(Nc1nccs1)c1cccc2[nH]c(-c3ccnc(Cl)c3)nc12 [Compound 231] | A (EC1.5<1.0 uM) | A (Fold activation >200%)
Cc1nnc(NC(=O)c2cccc3[nH]c(-c4cccc(C(F)(F)F)c4)nc23)s1 [Compound 232] | B (EC1.5 1-25 uM) | A (Fold activation >200%)
O=C(Nc1ccccn1)c1cccc2[nH]c(-c3cccc(C(F)(F)F)c3)nc12 [Compound 233] | B (EC1.5 1-25 uM) | A (Fold activation >200%)
O=C(Nc1cccnc1)c1cccc2[nH]c(-c3cccc(C(F)(F)F)c3)nc12 [Compound 234] | A (EC1.5<1.0 uM) | A (Fold activation >200%)
O=C(Nc1nccs1)c1cccc2[nH]c(-c3ccc(F)c(Cl)c3)nc12 [Compound 235] | B (EC1.5 1-25 uM) | A (Fold activation >200%)
O=C(Nc1nccs1)c1cccc2[nH]c(-c3cccc(N4CCCC4)c3)nc12 [Compound 236] | B (EC1.5 1-25 uM) | B (Fold Activation <200%)

More lines, now with the values ahead:

EC1.5 | Fold Act. (percent maximum fold activation) | Structure (SMILES)
B (EC1.5 1-25 uM) | B (Fold Activation <200%) | O=C(Nc1nccs1)c1cccc2[nH]c(-c3ccncc3)nc12 [Compound 237]
B (EC1.5 1-25 uM) | B (Fold Activation <200%) | O=C(Nc1nccs1)c1cccc2[nH]c(-c3nccs3)nc12 [Compound 238]
C (EC1.5 >25 uM) | B (Fold Activation <200%) | O=C(Nc1nncs1)c1cccc2[nH]c(-c3cccc(C(F)(F)F)c3)nc12 [Compound 239]
C (EC1.5 >25 uM) | B (Fold Activation <200%) | CC(C)(C)c1nnc(NC(=O)c2cccc3[nH]c(-c4cccc(C(F)(F)F)c4)nc23)s1 [Compound 240]
C (EC1.5 >25 uM) | B (Fold Activation <200%) | O=C(Nc1ncccn1)c1cccc2[nH]c(-c3cccc(C(F)(F)F)c3)nc12 [Compound 241]
B (EC1.5 1-25 uM) | B (Fold Activation <200%) | O=C(Nc1ccncc1)c1cccc2[nH]c(-c3cccc(C(F)(F)F)c3)nc12 [Compound 242]
A (EC1.5<1.0 uM) | A (Fold activation >200%) | O=C(Nc1cccnc1)c1cccc2[nH]c(-c3ccccc3C(F)(F)F)nc12 [Compound 243]
B (EC1.5 1-25 uM) | A (Fold activation >200%) | Cc1nc(-c2nc3c(C(=O)Nc4nccs4)cccc3[nH]2)c(C)o1 [Compound 244]
B (EC1.5 1-25 uM) | A (Fold activation >200%) | O=C(Nc1nccs1)c1cccc2[nH]c(-c3cccnc3Cl)nc12 [Compound 245]
B (EC1.5 1-25 uM) | B (Fold Activation <200%) | O=C(Nc1nccs1)c1cccc2[nH]c(-c3ccc(Cl)nc3)nc12 [Compound 246]
A (EC1.5<1.0 uM) | A (Fold activation >200%) | O=C(Nc1nccs1)c1cccc2[nH]c(-c3ccc(N4CCOCC4)nc3)nc12 [Compound 247, 2-(6-morpholinopyridin-3-yl)-N-(thiazol-2-yl)-1H-benzo[d]imidazole-4-carboxamide]
B (EC1.5 1-25 uM) | A (Fold activation >200%) | O=C(Nc1ccccn1)c1cccc2[nH]c(-c3ccccc3C(F)(F)F)nc12 [Compound 248]
B (EC1.5 1-25 uM) | A (Fold activation >200%) | O=C(Nc1nccs1)c1cccc2[nH]c(-c3ccco3)nc12 [Compound 249]
B (EC1.5 1-25 uM) | A (Fold activation >200%) | O=C(Nc1nccs1)c1cccc2[nH]c(-c3cccnc3N3CCOCC3)nc12 [Compound 250, 2-(2-morpholinopyridin-3-yl)-N-(thiazol-2-yl)-1H-benzo[d]imidazole-4-carboxamide]
A (EC1.5<1.0 uM) | A (Fold activation >200%) | O=C(Nc1nccs1)c1cccc2[nH]c(-c3ccc(N4CCNCC4)nc3)nc12 [Compound 251, 2-(6-(piperazin-1-yl)pyridin-3-yl)-N-(thiazol-2-yl)-1H-benzo[d]imidazole-4-carboxamide hydrochloride]
B (EC1.5 1-25 uM) | A (Fold activation >200%) | O=C(NCc1ccccn1)c1cccc2[nH]c(-c3cccc(C(F)(F)F)c3)nc12 [Compound 252]
